ChEMBL document CHEMBL1201861, “Genomics of Drug Sensitity in Cancer screening data, Wellcome Trust Sanger Institute”

What was measured:
Assay in all cases: cells
[1] = system: HCE-T; assay type: functional, cell-based, Homo sapiens; details: Homo sapiens, HCE-T;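 note: cell viability assay read-out, reporting inhibition of HCE-T cell growth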
Description: SANGER: Inhibition of human HCE-T cell growth in a cell viability assay.

[2] = system: NCI-H226; assay type: functional, cell-based, Homo sapiens; details: Homo sapiens, NCI-H226;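 note: cell viability read-out used to gauge growth inhibition of the cells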
Description: SANGER: Inhibition of human NCI-H226 cell growth in a cell viability assay.

[3] = system: D-502MG; assay type: functional, cell-based, Homo sapiens; details: Homo sapiens, D-502MG
Description: SANGER: Inhibition of human D-502MG cell growth in a cell viability assay.

[4] = system: MMAC-SF; assay type: functional, cell-based; details: Homo sapiens;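 note: growth inhibition of human MMAC-SF cells, read out with a cell viability assay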
Description: SANGER: Inhibition of human MMAC-SF cell growth in a cell viability assay.

[5] = system: Ramos-2G6-4C10; assay type: functional, cell-based, Homo sapiens; details: Homo sapiens, Ramos-2G6-4C10;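 note: growth inhibition of the cell line, measured by a cell viability read-out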
Description: SANGER: Inhibition of human Ramos-2G6-4C10 cell growth in a cell viability assay.

[6] = system: ETK-1; assay type: functional, cell-based, Homo sapiens; details: Homo sapiens, ETK-1;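 note: growth inhibition of human ETK-1 cells, read out with a cell viability assay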
Description: SANGER: Inhibition of human ETK-1 cell growth in a cell viability assay.

[7] = system: OCI-AML2; assay type: functional, cell-based, Homo sapiens; details: Homo sapiens, OCI-AML2;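 note: growth inhibition of OCI-AML2 cells, read out with a cell viability assay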
Description: SANGER: Inhibition of human OCI-AML2 cell growth in a cell viability assay.

[8] = system: IST-SL1; assay type: functional, cell-based, Homo sapiens; details: Homo sapiens, IST-SL1;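 note: growth inhibition of human IST-SL1 cells, read out with a cell viability assay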
Description: SANGER: Inhibition of human IST-SL1 cell growth in a cell viability assay.

[9] = system: HCC1187; assay type: functional, cell-based, Homo sapiens; details: Homo sapiens, HCC1187;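 note: growth inhibition of HCC1187 cells, read out with a cell viability assay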
Description: SANGER: Inhibition of human HCC1187 cell growth in a cell viability assay.

[10] = system: NCI-N87; assay type: functional, cell-based; details: Homo sapiens;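 note: growth inhibition of human NCI-N87 cells, read out with a cell viability assay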
Description: SANGER: Inhibition of human NCI-N87 cell growth in a cell viability assay.

[11] = system: J-RT3-T3-5; assay type: functional, cell-based, Homo sapiens; details: Homo sapiens, J-RT3-T3-5;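 note: cell viability assay measuring growth inhibition of human J-RT3-T3-5 cells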
Description: SANGER: Inhibition of human J-RT3-T3-5 cell growth in a cell viability assay.

[12] = system: GAK; assay type: functional, cell-based, Homo sapiens; details: Homo sapiens, GAK;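 note: cell growth inhibition read out by a cell viability assay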
Description: SANGER: Inhibition of human GAK cell growth in a cell viability assay.

[13] = system: LB2518-MEL; assay type: functional, cell-based; details: Homo sapiens;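 note: growth inhibition of human LB2518-MEL cells, measured with a cell viability assay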
Description: SANGER: Inhibition of human LB2518-MEL cell growth in a cell viability assay.

[14] = system: PC-3; assay type: functional, cell-based; details: Homo sapiens;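 note: cell viability assay measuring growth inhibition of PC-3 cells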
Description: SANGER: Inhibition of human PC-3 cell growth in a cell viability assay.

[15] = system: OCUB-M; assay type: functional, cell-based; details: Homo sapiens;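 note: growth inhibition of the cancer cell line, read out through a cell viability assay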
Description: SANGER: Inhibition of human OCUB-M cell growth in a cell viability assay.

[16] = system: GI-1; assay type: functional, cell-based, Homo sapiens; details: Homo sapiens, GI-1;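 note: growth inhibition of human GI-1 cells, measured with a cell viability readout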
Description: SANGER: Inhibition of human GI-1 cell growth in a cell viability assay.

[17] = system: NTERA-2-cl-D1; assay type: functional, cell-based, Homo sapiens; details: Homo sapiens, NTERA-2-cl-D1;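 note: inhibition of cell growth, measured with a cell viability assay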
Description: SANGER: Inhibition of human NTERA-S-cl-D1 cell growth in a cell viability assay.

[18] = system: KU812 cell line; assay type: functional, cell-based, Homo sapiens; details: Homo sapiens, KU812;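 note: growth inhibition of KU812 cells, read out with a cell viability assay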
Description: SANGER: Inhibition of human KU812 cell growth in a cell viability assay.

[19] = system: SNB-75; assay type: functional, cell-based, Homo sapiens; details: Homo sapiens, SNB-75;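 note: cell viability assay measuring growth inhibition of human SNB-75 cells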
Description: SANGER: Inhibition of human SNB75 cell growth in a cell viability assay.

[20] = system: MN-60; assay type: functional, cell-based, Homo sapiens; details: Homo sapiens, MN-60;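 note: growth inhibition of the MN-60 cell line, determined with a cell viability assay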
Description: SANGER: Inhibition of human MN-60 cell growth in a cell viability assay.

[21] = system: EW-18; assay type: functional, cell-based, Homo sapiens; details: Homo sapiens, EW-18; read-out: IC50;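 note: growth inhibition of EW-18 cells, read out by a cell viability assay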
Description: SANGER: Inhibition of human EW-18 cell growth in a cell viability assay.

[22] = system: no-11; assay type: functional, cell-based, Homo sapiens; details: Homo sapiens;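 note: growth inhibition of human NO-11 cells, read out with a cell viability assay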
Description: SANGER: Inhibition of human no-11 cell growth in a cell viability assay.

[23] = system: COR-L88; assay type: functional, cell-based, Homo sapiens; details: Homo sapiens, COR-L88;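 note: growth inhibition of COR-L88 cells, read out with a cell viability assay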
Description: SANGER: Inhibition of human COR-L88 cell growth in a cell viability assay.

[24] = system: NCI-H1355; assay type: functional, cell-based, Homo sapiens; details: Homo sapiens, NCI-H1355;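 note: growth inhibition of human NCI-H1355 cells, read out by a cell viability assay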
Description: SANGER: Inhibition of human NCI-H1355 cell growth in a cell viability assay.

[25] = system: COLO-668; assay type: functional, cell-based, Homo sapiens; details: Homo sapiens, COLO-668
Description: SANGER: Inhibition of human COLO-668 cell growth in a cell viability assay.

[26] = system: MS-1; assay type: functional, cell-based, Homo sapiens; details: Homo sapiens, MS-1;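 note: growth inhibition of MS-1 cells, read out by cell viability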
Description: SANGER: Inhibition of human MS-1 cell growth in a cell viability assay.

[27] = system: COLO-800; assay type: functional, cell-based, Homo sapiens; details: Homo sapiens, COLO-800;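 note: growth inhibition of COLO-800 cells, read out with a cell viability assay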
Description: SANGER: Inhibition of human COLO-800 cell growth in a cell viability assay.

[28] = system: HCE-4; assay type: functional, cell-based; details: Homo sapiens;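 note: cell viability assay measuring inhibition of growth in the human HCE-4 cell line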
Description: SANGER: Inhibition of human HCE-4 cell growth in a cell viability assay.

[29] = system: KURAMOCHI; assay type: functional, cell-based, Homo sapiens; details: Homo sapiens, KURAMOCHI;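 note: growth inhibition of KURAMOCHI cells, read out with a cell viability assay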
Description: SANGER: Inhibition of human KURAMOCHI cell growth in a cell viability assay.

[30] = system: SNU-C2B; assay type: functional, cell-based; details: Homo sapiens;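 note: cell viability readout used to measure compound-driven suppression of SNU-C2B cell proliferation, IC50 marking half-maximal growth inhibition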
Description: SANGER: Inhibition of human SNU-C2B cell growth in a cell viability assay.

[31] = system: CTV-1; assay type: functional, cell-based, Homo sapiens; details: Homo sapiens, CTV-1;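 note: growth inhibition of the cell line, read out with a cell viability assay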
Description: SANGER: Inhibition of human CTV-1 cell growth in a cell viability assay.

[32] = system: A4-Fuk; assay type: functional, cell-based, Homo sapiens; details: Homo sapiens, A4-Fuk;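 note: growth inhibition of A4-Fuk cells, read out by a cell viability assay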
Description: SANGER: Inhibition of human A4-Fuk cell growth in a cell viability assay.

[33] = system: EM-2; assay type: functional, cell-based, Homo sapiens; details: Homo sapiens, EM-2;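 note: growth inhibition of EM-2 cells, read out with a cell viability assay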
Description: SANGER: Inhibition of human EM-2 cell growth in a cell viability assay.

[34] = system: LXF-289 cell line; assay type: functional, cell-based; details: Homo sapiens
Description: SANGER: Inhibition of human LXF-289 cell growth in a cell viability assay.

[35] = system: HDLM-2; assay type: functional, cell-based, Homo sapiens; details: Homo sapiens, HDLM-2;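 note: cell viability assay measuring suppression of HDLM-2 proliferation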
Description: SANGER: Inhibition of human HDLM-2 cell growth in a cell viability assay.

[36] = system: SH-4; assay type: functional, cell-based; details: Homo sapiens;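 note: growth inhibition of SH-4 cells, read out with a cell viability assay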
Description: SANGER: Inhibition of human SH-4 cell growth in a cell viability assay.

[37] = system: KG-1; assay type: functional, cell-based, Homo sapiens; details: Homo sapiens, KG-1;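 note: growth inhibition of KG-1 cells, read out by a cell viability assay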
Description: SANGER: Inhibition of human KG-1 cell growth in a cell viability assay.

[38] = system: NB5; assay type: functional, cell-based, Homo sapiens; details: Homo sapiens, NB5;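 note: growth inhibition of NB5 cells, read out as cell viability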
Description: SANGER: Inhibition of human NB5 cell growth in a cell viability assay.

[39] = system: UACC-257; assay type: functional, cell-based, Homo sapiens; details: Homo sapiens, UACC-257
Description: SANGER: Inhibition of human UACC-257 cell growth in a cell viability assay.

[40] = system: OVCAR-4; assay type: functional, cell-based, Homo sapiens; details: Homo sapiens, OVCAR-4;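 note: growth inhibition of human OVCAR-4 cells, measured with a cell viability assay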
Description: SANGER: Inhibition of human OVCAR-4 cell growth in a cell viability assay.

[41] = system: MZ7-mel; assay type: functional, cell-based, Homo sapiens; details: Homo sapiens, MZ7-mel;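 note: growth inhibition of human MZ7-mel cells, measured by a cell viability assay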
Description: SANGER: Inhibition of human MZ7-mel cell growth in a cell viability assay.

[42] = system: KLE; assay type: functional, cell-based; details: Homo sapiens;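 note: growth inhibition of human KLE cells, read out with a cell viability assay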
Description: SANGER: Inhibition of human KLE cell growth in a cell viability assay.

[43] = system: KM12; assay type: functional, cell-based, Homo sapiens; details: Homo sapiens, KM12;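 note: KM12 cell growth inhibition, read out with a cell viability assay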
Description: SANGER: Inhibition of human KM12 cell growth in a cell viability assay.

[44] = system: RXF 393; assay type: functional, cell-based, Homo sapiens; details: Homo sapiens, RXF 393;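 note: growth inhibition of human RXF 393 cells, read out with a cell viability assay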
Description: SANGER: Inhibition of human RXF393 cell growth in a cell viability assay.

[45] = system: GI-ME-N; assay type: functional, cell-based, Homo sapiens; details: Homo sapiens, GI-ME-N;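 note: growth inhibition of human GI-ME-N cells, read out with a cell viability assay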
Description: SANGER: Inhibition of human GI-ME-N cell growth in a cell viability assay.

[46] = system: SW 962; assay type: functional, cell-based, Homo sapiens; details: Homo sapiens, SW 962;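 note: growth inhibition of human SW962 cells, read out by a cell viability assay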
Description: SANGER: Inhibition of human SW962 cell growth in a cell viability assay.

[47] = system: U-266; assay type: functional, cell-based, Homo sapiens; details: Homo sapiens, U-266
Description: SANGER: Inhibition of human U-266 cell growth in a cell viability assay.

[48] = system: KY821; assay type: functional, cell-based, Homo sapiens; details: Homo sapiens, KY821;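 note: growth inhibition of human KY821 cells, read out by a cell viability assay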
Description: SANGER: Inhibition of human KY821 cell growth in a cell viability assay.

[49] = system: QIMR-WIL; assay type: functional, cell-based, Homo sapiens; details: Homo sapiens, QIMR-WIL;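 note: growth inhibition of QIMR-WIL cells, read out with a cell viability assay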
Description: SANGER: Inhibition of human QIMR-WIL cell growth in a cell viability assay.

[50] = system: IA-LM; assay type: functional, cell-based; details: Homo sapiens;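 note: cell viability assay measuring growth inhibition of human IA-LM cells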
Description: SANGER: Inhibition of human IA-LM cell growth in a cell viability assay.

[51] = system: KGN; assay type: functional, cell-based, Homo sapiens; details: Homo sapiens, KGN;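 note: growth inhibition of KGN cells, read out with a cell viability assay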
Description: SANGER: Inhibition of human KGN cell growth in a cell viability assay.

CC1(C)CCC(c2ccc(Cl)cc2)=C(CN2CCN(c3ccc(C(=O)NS(=O)(=O)c4ccc(N[C@H](CCN5CCOCC5)CSc5ccccc5)c(S(=O)(=O)C(F)(F)F)c4)cc3)CC2)C1 [NAVITOCLAX]
IC50 [1]: > 2000 nM | IC50 [2]: > 2000 nM | IC50 [3]: > 2000 nM | IC50 [4]: > 2000 nM | IC50 [5]: 1740 nM | IC50 [6]: > 2000 nM | IC50 [7]: > 2000 nM | IC50 [8]: 353 nM | IC50 [9]: > 2000 nM | IC50 [10]: > 2000 nM | IC50 [11]: 608 nM | IC50 [12]: > 2000 nM | IC50 [13]: > 2000 nM | IC50 [14]: > 2000 nM | IC50 [15]: > 2000 nM | IC50 [16]: > 2000 nM | IC50 [17]: 500 nM | IC50 [18]: > 2000 nM | IC50 [19]: > 2000 nM | IC50 [20]: > 2000 nM | IC50 [21]: 68.4 nM | IC50 [22]: > 2000 nM | IC50 [23]: 365 nM | IC50 [24]: > 2000 nM | IC50 [25]: > 2000 nM | IC50 [26]: 469 nM | IC50 [27]: > 2000 nM | IC50 [28]: > 2000 nM | IC50 [29]: > 2000 nM | IC50 [30]: > 2000 nM | IC50 [31]: > 2000 nM | IC50 [32]: > 2000 nM | IC50 [33]: 199 nM | IC50 [34]: > 2000 nM | IC50 [35]: > 2000 nM | IC50 [36]: > 2000 nM | IC50 [37]: 44.9 nM | IC50 [38]: > 2000 nM | IC50 [39]: > 2000 nM | IC50 [40]: > 2000 nM | IC50 [41]: > 2000 nM | IC50 [42]: > 2000 nM | IC50 [43]: > 2000 nM | IC50 [44]: > 2000 nM | IC50 [45]: > 2000 nM | IC50 [46]: > 2000 nM | IC50 [47]: > 2000 nM | IC50 [48]: 29.7 nM | IC50 [49]: 42.9 nM | IC50 [50]: > 2000 nM | IC50 [51]: > 2000 nM

CC1=C(/C=C/C(C)=C/C=C/C(C)=C/C(=O)O)C(C)(C)CCC1 [TRETINOIN]
IC50 [1]: > 10000 nM | IC50 [2]: > 10000 nM | IC50 [3]: > 10000 nM | IC50 [4]: > 10000 nM | IC50 [5]: > 10000 nM | IC50 [6]: > 10000 nM | IC50 [7]: > 10000 nM | IC50 [8]: > 10000 nM | IC50 [9]: > 10000 nM | IC50 [10]: > 10000 nM | IC50 [11]: > 10000 nM | IC50 [12]: > 10000 nM | IC50 [13]: > 10000 nM | IC50 [14]: > 10000 nM | IC50 [15]: > 10000 nM | IC50 [16]: > 10000 nM | IC50 [17]: > 10000 nM | IC50 [18]: 536 nM | IC50 [19]: > 10000 nM | IC50 [20]: > 10000 nM | IC50 [21]: > 10000 nM | IC50 [22]: > 10000 nM | IC50 [23]: 3860 nM | IC50 [24]: > 10000 nM | IC50 [25]: > 10000 nM | IC50 [26]: > 10000 nM | IC50 [27]: > 10000 nM | IC50 [28]: > 10000 nM | IC50 [29]: > 10000 nM | IC50 [30]: > 10000 nM | IC50 [31]: 963 nM | IC50 [32]: > 10000 nM | IC50 [33]: 5330 nM | IC50 [34]: > 10000 nM | IC50 [35]: > 10000 nM | IC50 [36]: > 10000 nM | IC50 [37]: > 10000 nM | IC50 [38]: > 10000 nM | IC50 [39]: > 10000 nM | IC50 [40]: > 10000 nM | IC50 [41]: > 10000 nM | IC50 [42]: > 10000 nM | IC50 [43]: > 10000 nM | IC50 [44]: > 10000 nM | IC50 [45]: > 10000 nM | IC50 [46]: > 10000 nM | IC50 [47]: 4120 nM | IC50 [48]: 5700 nM | IC50 [49]: 6620 nM | IC50 [50]: > 10000 nM | IC50 [51]: > 10000 nM
